Data on one compound can be found in patent publication US9895363B2, “Methods for modulating function of proliferating cell nuclear antigen (PCNA) and treating cancer with PCNA-targeting compounds” (University of Cincinnati, priority 2010, dated 2018).

A word on the IC50: it is the concentration at which inhibition is half-maximal.

Test [1] concerns Lung Endothelial Cells (immortal) (Mu-Lu-Endo). Put plainly: Growth inhibition, mouse lung endothelial cells. The format is cell-based. The note with it: for IC50: Endothelial cell. As to the method: (§1) Growth inhibitory effects of PCNA-I1 and PCNA-I2 were assessed in human cancer cell lines, mouse cancer cell lines, immortalized mouse cell lines, and human primary cell lines. Specifically, growth inhibitory effects of PCNA-I1 and PCNA-I2 were assessed using MTT staining in the following cells lines: 1) human cancer cell lines including LNCaP (androgen receptor […]), 22Rv1, DU-145, LAPC-4, and PC-3 (androgen receptor […]) prostate cancer cells; MCF-7 and T47D breast cancer cells; A375 and MDA-MB435 melanoma cells; 2) mouse cancer cell lines including TRAMP-C2RE3 prostate cancer cells, B16 and K1735 melanoma cells, UV2237 fibrosarcoma cells, and CT-26 colon cancer cells; 3) immortalized mouse lung cell lines and mouse endothelial cell lines; and 4) primary human cell lines including umbilical endothelial cells (HUVEC, PromoCell, Heidelberg, Germany), primary bone marrow mesenchymal stem cells (HuMSC, PromoCell), primary human mammary epithelial cells (HuBrEC, Lonza, Walkersville, Md.), primary human prostate epithelial cells (HuPrEC, Lonza), and primary mouse spleen lymphocytes (isolated in this laboratory), and primary mouse bone marrow stromal cells (isolated in this laboratory). PCNA-I1 and PCNA-I2 were either provided by the University of Cincinnati Drug Discovery Center (UC-DDC, Cincinnati, Ohio) or were purchased from Chembridge Co (San Diego, Calif.), ChemDiv (San Diego, Calif.), and/or Sigma-Aldrich (St Louis, Mo.).
(§2) Growth inhibitory effects of the compounds were assessed by MTT staining as described previously by Dong et al. in In Vitro Model for Intrinsic Drug Resistance: Effects of Protein Kinase C Activators on the Chemosensitivity of Cultured Human Colon Cancer Cells; Mol. Pharmacol. 1991; 39: 563-9. […]
(§3) IC50 values were derived from growth inhibition curves. […] Inhibition of cell growth was calculated using the formula: growth inhibition (%)=(1−A570 of treated/A570 of control)×100. […] The fluorescence intensity was measured at 530/580 (excitation/emission) in the FLUOstar Omega microplate reader (BMG LABTECH, Cary, N.C.). […]

The subject of test [2] is HUVEC (primary human umbilical endothelial cells). Put plainly: Growth inhibition, HUVEC. The format is cell-based. The note with it: for IC50: HUVEC. As to the method: as §1, §2, §3
A further test deals with MDA-MB435 melanoma cells. Briefly: Growth inhibition by MTT staining, MDA-MB435. The test is classed as cell-based. The conditions noted are these: MDA-MB-435, 96 h, Human, treated four days. As for the experimental part:
as §1, with “PCNA-I1 and PCNA-I2 were either provided by the University of Cincinnati Drug Discovery Center (UC-DDC, Cincinnati, Ohio) or were purchased from Chembridge Co (San Diego, Calif.), ChemDiv (San Diego, Calif.), and/or Sigma-Aldrich (St Louis, Mo.).” left out
(§4) IC50 values were derived from growth inhibition curves. […] Inhibition of cell growth was calculated using the formula: growth inhibition (%)=(1−A570 of treated/A570 of control)×100. […]

The test system of test [3] is PC-3 prostate cancer cells. Briefly: Growth inhibition by MTT staining, PC-3. The test is classed as cell-based, Human. As to the method:
as §1
Growth inhibitory effects of the compounds were assessed by MTT staining as described previously by Dong et al. in In Vitro Model for Intrinsic Drug Resistance: Effects of Protein Kinase C Activators on the Chemosensitivity of Cultured Human Colon Cancer Cells; Mol. Pharmacol. 1991; 39: 563-9. Briefly, cells were cultured and treated in their respective media. Cells were plated into 96-well plates at 1000 to 5000 cells/well. After an overnight incubation, the cells were treated for four days with various concentrations (up to 10 μM) of PCNA-I1 or PCNA-I2. The live cells were stained with MTT and cells in exponential growth phase were harvested by a one to three minute treatment with a 0.25% trypsin-0.02% EDTA solution. Flasks were tapped to detach the cells, RPMI 1640-10% FBS was added, and the cell suspensions were gently agitated to produce single-cell suspensions. The cell suspensions were washed and resuspended in medium with supplements specified for different cells. Only suspensions of single cells with a viability exceeding 95% (ascertained by trypan blue exclusion) were used.
IC50 values were derived from growth inhibition curves. Data for tumor cells are a mean of five to seven experiments. Data for primary cells are a mean of three experiments. […] Inhibition of cell growth was calculated using the formula: growth inhibition (%)=(1−A570 of treated/A570 of control)×100. IC50 (the concentration that inhibited cell growth by 50%) values were also determined. For evaluation of lymphocyte growth in suspension, an Alamar blue assay was performed, wherein freshly prepared mouse spleen lymphocytes were stimulated for 72 H with 2 ug/mL concanavalin A (Sigma Chemicals, St. Louis, […].). During the last 24 H, 20 μl/well of Alamar blue (Invitrogen, Carlsbad, Calif.) was added. The fluorescence intensity was measured at 530/580 (excitation/emission) in the FLUOstar Omega microplate reader (BMG LABTECH, Cary, N.C.).
Growth inhibitory effects of PCNA-I3, PCNA-I4, PCNA-I6, PCNA-I7, PCNA-I8, PCNA-I9 and PCNA-I10 were assessed in human prostate cancer cell lines. Specifically, growth inhibitory effects of PCNA-I3, PCNA-I4, PCNA-I6, PCNA-I7, PCNA-I8, PCNA-I9 and PCNA-I10 were assessed using MTT staining in LNCaP and PC-3 cells. […]

For another test, the target named is T1, PCNA (Homo sapiens, UniProt P12004).
T1 construct: endogenous PCNA was knocked down with transfection of PCNA-specific siRNA; endogenous in cells; host or cells: PC-3
T1 sequence (P12004 whole entry): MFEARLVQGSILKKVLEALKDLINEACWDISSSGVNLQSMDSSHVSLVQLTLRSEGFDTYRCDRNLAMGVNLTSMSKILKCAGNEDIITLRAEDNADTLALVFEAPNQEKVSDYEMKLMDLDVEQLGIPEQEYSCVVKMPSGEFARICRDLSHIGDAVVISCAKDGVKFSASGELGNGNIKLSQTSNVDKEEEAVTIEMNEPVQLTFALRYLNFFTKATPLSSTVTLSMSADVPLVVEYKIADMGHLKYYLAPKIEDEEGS
Put plainly: PCNA trimer formation assay, PC-3 cell lysate. The test is classed as biochemical. The conditions noted are these: PC-3 lysate, 1 μM or 10 μM, 3 H, SDS-PAGE; FIG. 9(A). As for the experimental part:
The effect of PCNA-I1, PCNA-I2, PCNA-I3, PCNA-I4, PCNA-I6, PCNA-I7, PCNA-I8, PCNA-I9, and PCNA-I10 on PCNA trimer formation was investigated by SDS-PAGE and immunoblotting. Specifically, a trimer formation assay was performed on both PC-3 cell lysates and purified recombinant protein. The trimer formation assay was performed on purified recombinant protein to determine whether the effects of PCNA compounds on the stable trimer formation required the participation of other cellular proteins.
Purified His-PCNA (0.1 μg/reaction) and PC-3 cell lysates (50 μg/reaction) were incubated for 3 H at room temperature in a reaction buffer (40 mM Tris-HCl, pH 7.5, 0.2 mg/mL BSA, 10 mM MgCl2, and 10% glycerol) in the absence or presence of DMSO (0.1% vehicle control) or PCNA-I1, PCNA-I2, PCNA-I3, PCNA-I4, PCNA-I6, PCNA-I7, PCNA-I8, PCNA-I9, or PCNA-I10 (1 μM or 10 μM). The reaction was stopped by addition of the SDS-PAGE sample buffer without a reducing agent. The samples were resolved in SDS-PAGE without boiling and analyzed by immunoblotting using PCNA antibody.

The subject of test [4] is DU145 prostate cancer cells. Briefly: Growth inhibition by MTT staining, DU145. The format is cell-based. The conditions noted are these: DU-145, 96 h, Human tumor cells, treated four days. As to the method:
as §1, with “PCNA-I1 and PCNA-I2 were either provided by the University of Cincinnati Drug Discovery Center (UC-DDC, Cincinnati, Ohio) or were purchased from Chembridge Co (San Diego, Calif.), ChemDiv (San Diego, Calif.), and/or Sigma-Aldrich (St Louis, Mo.).” left out
as §4

Test [5] deals with primary bone marrow mesenchymal stem cells (MSC). Put plainly: Growth inhibition, bone marrow mesenchymal stem cells. The test is classed as cell-based, Human. As for the experimental part:
as §1, with “PCNA-I1 and PCNA-I2 were either provided by the University of Cincinnati Drug Discovery Center (UC-DDC, Cincinnati, Ohio) or were purchased from Chembridge Co (San Diego, Calif.), ChemDiv (San Diego, Calif.), and/or Sigma-Aldrich (St Louis, Mo.).” left out
as §4

SMILES strings stand for the structures. Read-outs that look alike come from different tables or passages of the source.

As to `Cc1ccsc1C(=O)N/N=C/c1ccc2ccccc2c1O` [PCNA-I1], the IC50 came to 1160 nM in test [1] (Mouse, Blood Vessel, normal cells, read-out: IC50 Values, Lung Endothelial Cells (immortal)); 1160 nM in test [1] (Mus musculus, FIG. 2(C), read-out: IC50, Mu-Lu-Endo); 1540 nM in test [2] (Human, Blood Vessel, normal cells, mean of three experiments, read-out: IC50 Values, HUVEC); 1540 nM in test [2] (Homo sapiens, FIG. 2(C), read-out: IC50, HUVEC); 290 nM with MDA-MB435 melanoma cells; 240 nM in test [3] (96 h, Table II, Human tumor cells, MTT, treated four days, mean of five to seven experiments, read-out: IC50 Values, PC-3). Also, the IC50 in test [3] (Homo sapiens, FIG. 2(C), read-out: IC50, PC-3) worked out at 250 nM; in test [4], 160 nM; in test [5] (Homo sapiens, FIG. 2(C), read-out: IC50, MSC), 989 nM; in test [5] (Human, Bone Marrow, normal cells, read-out: IC50 Values, Mesenchymal Stem Cells), 990 nM. In addition, in test [1] (FIG. 2(C)), the “Growth stimulation, Mu-Lu-Endo” value is reported as “Moderate growth stimulation”. In addition, the “Growth stimulation, HUVEC” value in test [2] (FIG. 2(C)) is recorded as “Moderate growth stimulation”. For the same compound, the “Portion of PCNA in the trimer form” value at PCNA was “significantly elevated”.
